Test results: article PMC7887336, “Altered functional properties of the codling moth Orco mutagenized in the intracellular loop-3” (Scientific Reports, 2021)
Several values for one entry are separate records, joined by “and”; a condition that tells them apart may be missing. Equal values may be shown once.

Assays:
[1] = target: T1, CpomOrco (Cydia pomonella, UniProt H9A5M2); experiment: Calcium imaging (Fluo-4) of HEK293A cells transfected with wild-type CpomOrco, VUAA1 stimulation; type: cell-based; conditions: for Fluo4 + cells, %: of bright field cells; for EC50 / Hill coefficient / maximum response (Hill fit of calcium response amplitudes): HEK293A, CpomOrco
Method: (§1) HEK293 cells lines (HEK293A/HEK293T) were grown in HEK cell media [Dulbecco's modified Eagle's medium containing 10% fetal bovine serum (MP Biomedicals, Solon, OH, USA), 2.0 mM L-glutamine, and 100 µg/mL penicillin/streptomycin (Invitrogen)] at 37 °C and 5% CO2. To test transient expression of wild type CpomOrco and CpomOrco^Q417H variant for calcium imaging and patch-clamp recording, 35-mm petri dishes containing semi-confluent HEK293A cells were transiently transfected. Cells were transfected with 0.6 µg of pcDNA40-DEST carrying the coding sequence of the CpomOrco variant (depending on the experiments). To report expression for calcium imaging experiments, 0.6 µg of a separate plasmid DNA [pEBFP2-Nuc, a gift from Robert Campbell (Addgene plasmid # 1489352)] carrying the coding sequence for a blue fluorescent protein (EBFP) was co-transfected. To report expression in patch-clamp recordings, 1.0 µg of a separate plasmid DNA (pXOOM, Clontech, Mountain View, CA, USA) carrying the coding sequence for a green fluorescent protein (GFP) was co-transfected. Expressions of fluorescent reporter genes were under the regulation of the same promoter for Cpom-genes (CMV). For specific experiments, co-transfections were conducted combining an additional 1.2 µg of pcDNA40-DEST/CpomOR3 or pcDNA40-DEST/CpomOR6a, as we previously described. Co-transfections with CpomOR3 were performed for dose–response experiments to pear ester: CpomOR3 was co-expressed with CpomOrco variants by the use of HEK293T (Fig. 3b); given the reported functional co-expression data of the CpomOrco + OR3 heteromers by the use of these specific cells. In brief, transfection DNAs were dissolved in 100 µL sterile DMEM, mixed with 3.0 µL Calfectin (SignaGen, Rockville, MD, USA) following the recommended protocol. Transfections were conducted overnight for up to 18 h, HEK cell media was replaced with 2.0 mL fresh media to incubate cells at 37 °C for up to 6–8 h, at which point part of the cell culture was spread in the middle of a 35-mm plate as individual cells or small clusters and rinsed at the sides with 2.0 mL fresh HEK media. After splitting, cells were allowed to recover for at least 1 day prior to calcium imaging.
Activation of HEK293 cells transfected with CpomOrco variants was tested using the same procedures we previously described. Petri dishes were incubated for 1 h at room temperature in 1.0 mL HEK Ca^++ Ringer (mM: 140 NaCl, 5.0 KCl, 2.0 CaCl2, 10 HEPES, pH 7.4) containing the fluorescent calcium indicator Fluo-4AM (Invitrogen) at 5–15 µM prepared with 0.2–0.06% Pluronic F-127 (Invitrogen). To monitor intracellular pH, HEK293A cells were loaded with 10.0 µL BCECF dye (Anaspec, Fremont, CA).
As reported in Cattaneo et al.[14], the buffer was removed after incubation, cells were rinsed with 4.0 mL fresh HEK Ca^++ Ringer and placed on the stage of an inverted microscope (Olympus IX-71, Olympus Corp., Tokyo, Japan) equipped with a cooled CCD camera (ORCA R2, Hamamatsu, Hamamatsu City, Japan). Cells were continuously superfused with Ca^++ Ringer using two gravity fed perfusion contours. The […] contour washing the cells (~ 250 µL/min) was switched rapidly to the stimulus contour using a multi-channel rapid solution changer (RSC-160, Bio-Logic, Claix, France) under the software control of Clampex 9 (Molecular Devices, Sunnyvale, CA, USA).
(§2) Fluorescence imaging was performed using settings optimized for Imaging Workbench 6 software (INDEC BioSystems, Santa Clara, CA, USA)[14]. The non-responsive cells were not included in these analyses. Each cell was assigned a region of interest (ROI) and changes in fluorescence intensity within each ROI were measured and expressed as the fractional change in fluorescence intensity (dF). Stored time series image stacks were analysed off-line using Imaging Workbench 6, Clampfit 10.5 (Molecular Devices) and SigmaPlot 11 (Systat Software Inc., San Jose, CA, USA). Dose–response curves were approximated using Hill equation. […]

[2] = target: T1, CpomOrco; experiment: Whole-cell voltage-clamp recordings of HEK293A cells transfected with CpomOrco, VUAA1; type: cell-based; conditions: for EC50: EC50 (K1/2)
Method: as §1
Electrophysiological experiments were performed according with the same procedures we previously described. Patch pipettes were fabricated from borosilicate capillary glass (BF150-86–10, Sutter Instrument, CA, USA) using a Flaming-Brown micropipette puller (P-87, Sutter Instrument). Only patches with initial cell-attached seal resistance estimated higher than 1.0 GOhms were used in the experiments. Intracellular (pipette) solution for whole-cell experiments was KCl 140 mM, EGTA 1 mM, Hepes 5 mM, MES 5 mM, pH 8.0 or pH 5.5 (depending on the experiment) adjusted with either NaOH or HCl, standard Na^+ 140 mM. bath solution was usually NaCl 140 mM, EGTA 0.1 mM, Hepes 10 mM, pH 7.4 (adjusted with Tris-base or NaOH). VUAA1 doses (0–1000 µM) were added to the extracellular test solutions.
As described in methods of Cattaneo et al.[14], GFP positive HEK293A cells were visualized using either an Axiovert 100 inverted microscope (Carl Zeiss, Inc., München, Germany) equipped with a mercury vapour compressed-arc lamp (HBO100) coupled to widefield fluorescence filter set (1114–459, Carl Zeiss, Inc.) or Olympus IX-71 inverted microscope described above (Olympus Corp.). The Orco channel-mediated currents were investigated using whole-cell patch-clamp recordings. The currents were measured with a 200B patch-clamp amplifier (Molecular Devices) and a digital interface (Digidata 1320A, Molecular Devices), low pass filtered at 5.0 kHz, sampled at 1–2 kHz. Analysis of the data was carried out using pCLAMP 9.2/10.5 software (Molecular Devices) and SigmaPlot 11 (Systat Software Inc). […]

[3] = system: CpomOrco+OR6a; experiment: VUAA1 responsiveness (Fluo4 +) of HEK293A cells co-transfected with CpomOrco and CpomOR6a; type: cell-based, Cydia pomonella; conditions: for Fluo4 + cells, %: of bright field cells
Method: (§3) HEK293 cells lines (HEK293A/HEK293T) were grown in HEK cell media [Dulbecco's modified Eagle's medium containing 10% fetal bovine serum (MP Biomedicals, Solon, OH, USA), 2.0 mM L-glutamine, and 100 µg/mL penicillin/streptomycin (Invitrogen)] at 37 °C and 5% CO2. To test transient expression of wild type CpomOrco and CpomOrco^Q417H variant for calcium imaging and patch-clamp recording, 35-mm petri dishes containing semi-confluent HEK293A cells were transiently transfected. Cells were transfected with 0.6 µg of pcDNA40-DEST carrying the coding sequence of the CpomOrco variant (depending on the experiments). To report expression for calcium imaging experiments, 0.6 µg of a separate plasmid DNA [pEBFP2-Nuc, a gift from Robert Campbell (Addgene plasmid # 1489352)] carrying the coding sequence for a blue fluorescent protein (EBFP) was co-transfected. To report expression in patch-clamp recordings, 1.0 µg of a separate plasmid DNA (pXOOM, Clontech, Mountain View, CA, USA) carrying the coding sequence for a green fluorescent protein (GFP) was co-transfected. Expressions of fluorescent reporter genes were under the regulation of the same promoter for Cpom-genes (CMV). For specific experiments, co-transfections were conducted combining an additional 1.2 µg of pcDNA40-DEST/CpomOR3 or pcDNA40-DEST/CpomOR6a, as we previously described. […]
as §2, with “The non-responsive cells were not included in these analyses.” left out, “USA).” for “USA). Dose–response curves were approximated using Hill equation.”

[4] = system: CpomOrco^Q417H+OR6a; experiment: VUAA1 responsiveness (Fluo4 +) of HEK293A cells co-transfected with CpomOrco^Q417H and CpomOR6a; type: cell-based, Cydia pomonella; conditions: for Fluo4 + cells, %: of bright field cells
Method: as §3
as §2, with “The non-responsive cells were not included in these analyses.” left out, “USA).” for “USA). Dose–response curves were approximated using Hill equation.”

[5] = after 30 min incubation at low pHe = 4.7
[6] = intracellular pH = 5.5, extracellular pH 7.4, -50 mV
[7] = intracellular pH = 8.0, extracellular pH 7.4, -50 mV

T1 sequence (H9A5M2 entry or part of it): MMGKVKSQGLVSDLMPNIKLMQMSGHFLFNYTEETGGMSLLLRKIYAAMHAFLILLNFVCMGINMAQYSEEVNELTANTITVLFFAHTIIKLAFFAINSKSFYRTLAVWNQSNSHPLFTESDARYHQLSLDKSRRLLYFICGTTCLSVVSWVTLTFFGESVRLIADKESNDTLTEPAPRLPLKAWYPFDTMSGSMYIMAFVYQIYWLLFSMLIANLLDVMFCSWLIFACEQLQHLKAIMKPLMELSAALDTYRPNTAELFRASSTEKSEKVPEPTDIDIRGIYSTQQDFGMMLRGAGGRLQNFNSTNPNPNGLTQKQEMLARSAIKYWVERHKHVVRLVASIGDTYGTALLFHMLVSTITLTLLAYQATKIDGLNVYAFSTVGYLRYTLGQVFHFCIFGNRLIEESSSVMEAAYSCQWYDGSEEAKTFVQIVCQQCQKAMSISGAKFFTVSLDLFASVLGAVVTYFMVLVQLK

SMILES: CCc1ccc(NC(=O)CSc2nnc(-c3cccnc3)n2CC)cc1 [VUAA1, acetamide,N-(4-ethylphenyl)-2-[[4-ethyl-5-(3-pyridinyl)-4H-1,2,4-triazol-3-yl]thio]-]
- Fluo4 + cells, % ([1]; 800 µM VUAA1, Experiment 1, CpomOrco): 30,99%
- Fluo4 + cells, % ([1]; 800 µM VUAA1, Experiment 2, CpomOrco): 35,06%
- percentage of cells sensitive to VUAA1 (relative to total number of visible cells) ([1]; 800 µM VUAA1, HEK293A transfected with CpomOrco and EBFP, range of two experiments): 30.99–35.06%
- EC50 [1, 5]: ~260 µM
- Hill coefficient [1, 5]: ~ 2.5 ± 4.3
- maximum response (Hill fit of calcium response amplitudes) ([1]; after 30 min incubation at low pHe = 4.7, n = 84, constraints applied to fit): ~ 1.3 ± 0.7 ∆F and 1.3 ∆F
- Hill coefficient ([1]; control pH conditions (pH 7.4)): ~ 2.4 ± 0.1
- EC50 ([1]; control pH conditions (pH 7.4), Hill fit): ~157 µM
- maximum response (Hill fit of calcium response amplitudes) ([1]; control pH conditions (pH 7.4), N = 123 cells): ~ 6.3 ∆F and ~ 6.3 ± 0.1 ∆F and 6.3 ∆F
- EC50 [2, 6]: ~561 µM
- EC50 [2, 7]: ~403 µM
- h (Hill equation) ([2]; intracellular pH = 5.5): ~ 5 ± 3.9
- number of cells sensitive to VUAA1 ([2]; intracellular pH = 5.5, GFP positive cells tested): 3 out of 4
- Imax (whole-cell current amplitude, Hill fit) [2, 6]: ~ 196 pA and ~ 196 + -32 pA
- h (Hill equation) ([2]; intracellular pH = 8.0): ~ 4 ± 0.6
- number of cells sensitive to VUAA1 ([2]; intracellular pH = 8.0, GFP positive cells tested): 8 out of 13
- Imax (whole-cell current amplitude, Hill fit) [2, 7]: ~ 784 pA and ~ 784 ± 40 pA
- Fluo4 + cells, % ([3]; 800 µM VUAA1, Experiment 3, CpomOrco+OR6a): 48,34%
- Fluo4 + cells, % ([3]; 800 µM VUAA1, Experiment 4, CpomOrco+OR6a): 49,71%
- percentage of VUAA-responsive cells ([3]; 800 µM VUAA1, HEK293A co-transfected with CpomOrco, CpomOR6a and EBFP, range of two experiments): 48.34–49.71%
- Fluo4 + cells, % ([4]; 800 µM VUAA1, Experiment 3, CpomOrcoQ417H+OR6a): 8,41%
- Fluo4 + cells, % ([4]; 800 µM VUAA1, Experiment 4, CpomOrcoQ417H+OR6a): 10,33%
- percentage of VUAA1 sensitive cells ([4]; 800 µM VUAA1, HEK293A co-transfected with CpomOrco^Q417H, CpomOR6a and EBFP, range of two experiments): 8.41–10.33%
